# Test results published in US10471046B2, “Method for treating, preventing, or reducing the risk of skin infection” (Melinta Subsidiary Corp., priority 2014, dated 2019).
# Tested on: S. aureus
# Experiment: Minimum inhibitory concentrations (MICs) for S. aureus of exemplary compounds (Table 2)
# Assay type: cell-based
# Conditions: Staphylococcus aureus, minimum inhibitory concentrations for S. aureus; read-out: MICs
# Excerpt: Exemplary compounds in accordance with the invention are listed in Table 2 with their minimum inhibitory concentrations (MICs) (μg/mL) for S. aureus:
# Furthermore, the antibiotic compounds can be assayed for anti-proliferative or anti-infective properties on a cellular level. For example, where the target organism is a microorganism, the activity of compounds of interest can be assayed by growing the microorganisms of interest in media either containing or lacking the compound. Growth inhibition can be indicative that the molecule could be acting as a protein synthesis inhibitor. […] For this purpose, a panel of bacterial strains can be assembled to include a variety of target pathogenic species, some containing resistance mechanisms that have been characterized. Use of such a panel of organisms permits the determination of structure-activity relationships not only in regards to potency and spectrum, but also with a view to obviating resistance mechanisms. The assays can be performed in microtiter trays according to conventional methodologies as published by The National Committee for Clinical Laboratory Standards (NCCLS) guidelines (NCCLS. M7-A5-Methods for Dilution Antimicrobial Susceptibility Tests for Bacteria That Grow Aerobically; Approved Standard-Fifth Edition. NCCLS Document M100-S12/M7 (ISBN 1-56238-394-9)).
row,Compound,MIC [µg/mL]
1,"CC(=O)NC[C@H]1CN(c2ccc(-c3ccc(C(=O)NCc4ccncc4)nc3)c(F)c2)C(=O)O1 [Compound 4188, 5-{4-[5-(S)-(Acetylamino-methyl)-2-oxo-oxazolidin-3-yl]-2-fluoro-phenyl}-pyridine-2-carboxylic acid (pyridin-4-ylmethyl)-amide]",1
2,"CC(=O)NC[C@H]1CN(c2ccc(-c3ccc(CNCC4CCCN4)cc3)c(F)c2)C(=O)O1 (mixture of isomers) [Compound 4279, N-[3-(2-Fluoro-4′-{[(pyrrolidin-2-(R/S)-ylmethyl)-amino]-methyl}-biphenyl-4-yl)-2-oxo-oxazolidin-5-(S)-ylmethyl]-acetamide]",4
3,"CC(=O)NC[C@H]1CN(c2ccc(-c3ccc(CNCc4cccs4)cc3)c(F)c2)C(=O)O1 [Compound 4137, N-[3-(2-Fluoro-4′-{[(thiophen-2-ylmethyl)-amino]-methyl}-biphenyl-4-yl)-2-oxo-oxazolidin-5-(S)-ylmethyl]-acetamide]",0.5
4,"CC(=O)NC[C@H]1CN(c2ccc(-c3ccc(CNCc4cocn4)nc3)c(F)c2)C(=O)O1 [Compound 4235, N-{3-[3-Fluoro-4-(6-{[(oxazol-4-ylmethyl)-amino]-methyl}-pyridin-3-yl)-phenyl]-2-oxo-oxazolidin-5-(S)-ylmethyl}-acetamide]",2
5,"CC(=O)NC[C@H]1CN(c2ccc(-c3ccc([C@@H](O)CNCc4cocn4)cc3)c(F)c2)C(=O)O1 [Compound 4199, N-[3-(2-Fluoro-4′-{1-(R)-hydroxy-2-[(oxazol-4-ylmethyl)-amino]-ethyl}-biphenyl-4-yl)-2-oxo-oxazolidin-5-(S)-ylmethyl]-acetamide]",4
6,"CC(=O)NC[C@H]1CN(c2ccc(-c3ccc([C@H](O)CN4CCC4)cc3)c(F)c2)C(=O)O1 [Compound 1062, N-{3-[4′-(2-Azetidin-1-yl-1-(S)-hydroxy-ethyl)-2-fluoro-biphenyl-4-yl]-2-oxo-oxazolidin-5-(S)-ylmethyl}-acetamide]",8
7,"CC(=O)NC[C@H]1CN(c2ccc(-c3ccc(CNC(=O)C4CCN4)cc3)c(F)c2)C(=O)O1 (stereo partly drawn) [Compound 4296, Azetidine-2-carboxylic acid {4′-[5-(S)-(acetylamino-methyl)-2-oxo-oxazolidin-3-yl]-2′-fluoro-biphenyl-4-ylmethyl}-amide]",2
8,"CC(=O)NC[C@H]1CN(c2ccc(-c3ccc(CNCC(=O)N4CCN(C(=O)OC(C)(C)C)CC4)cc3)c(F)c2)C(=O)O1 [Compound 4315, 4-[2-({4′-[5-(S)-(Acetylamino-methyl)-2-oxo-oxazolidin-3-yl]-2′-fluoro-biphenyl-4-ylmethyl}-amino)-acetyl]-piperazine-1-carboxylic acid tert-butyl ester]",4
9,"CC(=O)NC[C@H]1CN(c2ccc(-c3ccc(C[S+]([O-])Cc4ccncc4)cc3)c(F)c2)C(=O)O1 (stereo partly drawn) [Compound 4212, N-{3-[2-Fluoro-4′-(pyridin-4-ylmethanesulfinylmethyl)-biphenyl-4-yl]-2-oxo-oxazolidin-5-(S)-ylmethyl}-acetamide]",0.25
10,"CC(=O)NC[C@H]1CN(c2ccc(-c3ccc(S(=O)(=O)NCCc4ccccn4)cc3)c(F)c2)C(=O)O1 [Compound 3007, N-{3-[2-Fluoro-4′-(2-pyridin-2-yl-ethylsulfamoyl)-biphenyl-4-yl]-2-oxo-oxazolidin-5-(S)-ylmethyl}-acetamide]",1
11,"CC(=O)NC[C@H]1CN(c2ccc(-c3ccc(Cc4noc(C)n4)cc3)c(F)c2)C(=O)O1 [Compound 1017, N-{3-[2-Fluoro-4′-(5-(S)-methyl-[1,2,4]oxadiazol-3-ylmethyl)-biphenyl-4-yl]-2-oxo-oxazolidin-5-(S)-ylmethyl}-acetamide]",1
12,"CC(=O)NC[C@H]1CN(c2ccc(-c3ccc(CN(Cc4nnn(C)n4)C(=O)OC(C)(C)C)cc3)c(F)c2)C(=O)O1 [Compound 4281, {4′-[5-(S)-(Acetylamino-methyl)-2-oxo-oxazolidin-3-yl]-2′-fluoro-biphenyl-4-ylmethyl}-(2-methyl-2H-tetrazol-5-ylmethyl)-carbamic acid tert-butyl ester]",2
13,"CC(=O)NC[C@H]1CN(c2ccc(-c3ccc(CN(C)Cc4ccccn4)cc3)c(F)c2)C(=O)O1 [Compound 4045, N-(3-{2-Fluoro-4′-[(methyl-pyridin-2-ylmethyl-amino)-methyl]-biphenyl-4-yl}-2-oxo-oxazolidin-5-(S)-ylmethyl)-acetamide]",2
14,"CC(=O)NC[C@H]1CN(c2ccc(-c3ccc(CNCc4c[nH]c(C)n4)cc3)c(F)c2)C(=O)O1 [Compound 4165, N-[3-(2-Fluoro-4′-{[(2-methyl-1H-imidazol-4-ylmethyl)-amino]-methyl}-biphenyl-4-yl)-2-oxo-oxazolidin-5-(S)-ylmethyl]-acetamide]",4
15,"CC(=O)NC[C@H]1CN(c2ccc(-c3ccc(CNCc4cccn4S(=O)(=O)c4ccccc4)cc3)c(F)c2)C(=O)O1 [Compound 4100, N-[3-(4′-{[(1-Benzenesulfonyl-1H-pyrrol-2-ylmethyl)-amino]-methyl}-2-fluoro-biphenyl-4-yl)-2-oxo-oxazolidin-5-(S)-ylmethyl]-acetamide]",4
16,"CC(=O)NC[C@H]1CN(c2ccc(-c3cccc(CNCc4csnn4)c3)c(F)c2)C(=O)O1 [Compound 4166, N-[3-(2-Fluoro-3′-{[([1,2,3]thiadiazol-4-ylmethyl)-amino]-methyl}-biphenyl-4-yl)-2-oxo-oxazolidin-5-(S)-ylmethyl]-acetamide]",8
17,"CC(=O)NC[C@H]1CN(c2ccc(-c3ccc(CNCc4ccncc4F)cc3)c(F)c2)C(=O)O1 [Compound 4179, N-[3-(2-Fluoro-4′-{[(3-fluoro-pyridin-4-ylmethyl)-amino]-methyl}-biphenyl-4-yl)-2-oxo-oxazolidin-5-(S)-ylmethyl]-acetamide]",2
18,"CC(=O)NC[C@H]1CN(c2ccc(-c3ccc([C@H](O)CN(C)Cc4ccccc4)cc3)c(F)c2)C(=O)O1 [Compound 4251, N-(3-{4′-[2-(Benzyl-methyl-amino)-1-(S)-hydroxy-ethyl]-2-fluoro-biphenyl-4-yl}-2-oxo-oxazolidin-5-(S)-ylmethyl)-acetamide]",2
19,"CC(=O)NC[C@H]1CN(c2ccc(-c3ccc(CNCc4cc(C)on4)cc3)c(F)c2)C(=O)O1 [Compound 4229, N-[3-(2-Fluoro-4′-{[(5-methyl-isoxazol-3-ylmethyl)-amino]-methyl}-biphenyl-4-yl)-2-oxo-oxazolidin-5-(S)-ylmethyl]-acetamide]",0.25
20,"CC(=O)NC[C@H]1CN(c2ccc(-c3ccc(Cn4cnnn4)cc3)c(F)c2)C(=O)O1 [Compound 1047, N-[3-(2-Fluoro-4′-tetrazol-1-ylmethyl-biphenyl-4-yl)-2-oxo-oxazolidin-5-(S)-ylmethyl]-acetamide]",0.25
21,"CC(=O)NC[C@H]1CN(c2ccc(-c3ccc(CNCc4nn(-c5ccccc5)nc4C)cc3)c(F)c2)C(=O)O1 [Compound 4146, N-[3-(2-Fluoro-4′-{[(5-methyl-2-phenyl-2H-[1,2,3]triazol-4-ylmethyl)-amino]-methyl}-biphenyl-4-yl)-2-oxo-oxazolidin-5-(S)-ylmethyl]-acetamide]",4
22,"CC(=O)NC[C@H]1CN(c2ccc(-c3ccc(CNCc4cc(C)c(C)o4)cc3)c(F)c2)C(=O)O1 [Compound 4085, N-[3-(4′-{[(4,5-Dimethyl-furan-2-ylmethyl)-amino]-methyl}-2-fluoro-biphenyl-4-yl)-2-oxo-oxazolidin-5-(S)-ylmethyl]-acetamide]",4
23,"CC(=O)NC[C@H]1CN(c2ccc(-c3ccc(CNC(=O)/C=C/c4ccc(=O)n(C)c4)cc3)c(F)c2)C(=O)O1 [Compound 4193, N-{4′-[5-(S)-(Acetylamino-methyl)-2-oxo-oxazolidin-3-yl]-2′-fluoro-biphenyl-4-ylmethyl}-3-(1-methyl-6-oxo-1,6-dihydro-pyridin-3-yl)-acrylamide]",8
24,"CC(=O)NC[C@H]1CN(c2ccc(-c3ccc([C@H](O)CN4CCCC(F)(F)C4)cc3)c(F)c2)C(=O)O1 [Compound 1075, N-(3-{4′-[2-(3,3-Difluoro-piperidin-1-yl)-1-(S)-hydroxy-ethyl]-2-fluoro-biphenyl-4-yl}-2-oxo-oxazolidin-5-(S)-ylmethyl)-acetamide]",2
25,"COc1cc(CN(C)Cc2ccoc2)ccc1-c1ccc(N2C[C@H](CNC(C)=O)OC2=O)cc1F [Compound 4034, N-(3-{2-Fluoro-4′-[(furan-3-ylmethyl-methyl-amino)-methyl]-2′-methoxy-biphenyl-4-yl}-2-oxo-oxazolidin-5-(S)-ylmethyl)-acetamide]",32
26,"CC(=O)NC[C@H]1CN(c2ccc(-c3ccc(Cn4cncc4C)cc3)c(F)c2)C(=O)O1 [Compound 1067, N-{3-[2-Fluoro-4′-(5-methyl-imidazol-1-ylmethyl)-biphenyl-4-yl]-2-oxo-oxazolidin-5-(S)-ylmethyl}-acetamide]",1
27,"CC(=O)NC[C@H]1CN(c2ccc(-c3ccc(CNCc4cc[n+]([O-])cc4)cc3)c(F)c2)C(=O)O1 [Compound 4245, N-[3-(2-Fluoro-4′-{[(1-oxy-pyridin-4-ylmethyl)-amino]-methyl}-biphenyl-4-yl)-2-oxo-oxazolidin-5-(S)-ylmethyl]-acetamide]",2
28,"CC(=O)NC[C@H]1CN(c2ccc(-c3ccc(CNCc4[nH]cnc4C)cc3)c(F)c2)C(=O)O1 [Compound 4082, N-[3-(2-Fluoro-4′-{[(5-methyl-3H-imidazol-4-ylmethyl)-amino]-methyl}-biphenyl-4-yl)-2-oxo-oxazolidin-5-(S)-ylmethyl]-acetamide]",32
